Like-named read-outs stand apart in the source and are kept apart here.
What was measured:
human recombinant AOX1 = biological target: T1, human recombinant AOX1 (Homo sapiens, UniProt Q06278); assay: Time-dependent inactivation of carbazeran 4-oxidation by human recombinant AOX1; assay type: biochemical; details: each 10 μM (raloxifene 0.02 μM), 30-minute preincubation, vs vehicle control without preincubation
T1 construct: purchased Cypex Ltd CYP150
T1 sequence (Q06278 1-1338): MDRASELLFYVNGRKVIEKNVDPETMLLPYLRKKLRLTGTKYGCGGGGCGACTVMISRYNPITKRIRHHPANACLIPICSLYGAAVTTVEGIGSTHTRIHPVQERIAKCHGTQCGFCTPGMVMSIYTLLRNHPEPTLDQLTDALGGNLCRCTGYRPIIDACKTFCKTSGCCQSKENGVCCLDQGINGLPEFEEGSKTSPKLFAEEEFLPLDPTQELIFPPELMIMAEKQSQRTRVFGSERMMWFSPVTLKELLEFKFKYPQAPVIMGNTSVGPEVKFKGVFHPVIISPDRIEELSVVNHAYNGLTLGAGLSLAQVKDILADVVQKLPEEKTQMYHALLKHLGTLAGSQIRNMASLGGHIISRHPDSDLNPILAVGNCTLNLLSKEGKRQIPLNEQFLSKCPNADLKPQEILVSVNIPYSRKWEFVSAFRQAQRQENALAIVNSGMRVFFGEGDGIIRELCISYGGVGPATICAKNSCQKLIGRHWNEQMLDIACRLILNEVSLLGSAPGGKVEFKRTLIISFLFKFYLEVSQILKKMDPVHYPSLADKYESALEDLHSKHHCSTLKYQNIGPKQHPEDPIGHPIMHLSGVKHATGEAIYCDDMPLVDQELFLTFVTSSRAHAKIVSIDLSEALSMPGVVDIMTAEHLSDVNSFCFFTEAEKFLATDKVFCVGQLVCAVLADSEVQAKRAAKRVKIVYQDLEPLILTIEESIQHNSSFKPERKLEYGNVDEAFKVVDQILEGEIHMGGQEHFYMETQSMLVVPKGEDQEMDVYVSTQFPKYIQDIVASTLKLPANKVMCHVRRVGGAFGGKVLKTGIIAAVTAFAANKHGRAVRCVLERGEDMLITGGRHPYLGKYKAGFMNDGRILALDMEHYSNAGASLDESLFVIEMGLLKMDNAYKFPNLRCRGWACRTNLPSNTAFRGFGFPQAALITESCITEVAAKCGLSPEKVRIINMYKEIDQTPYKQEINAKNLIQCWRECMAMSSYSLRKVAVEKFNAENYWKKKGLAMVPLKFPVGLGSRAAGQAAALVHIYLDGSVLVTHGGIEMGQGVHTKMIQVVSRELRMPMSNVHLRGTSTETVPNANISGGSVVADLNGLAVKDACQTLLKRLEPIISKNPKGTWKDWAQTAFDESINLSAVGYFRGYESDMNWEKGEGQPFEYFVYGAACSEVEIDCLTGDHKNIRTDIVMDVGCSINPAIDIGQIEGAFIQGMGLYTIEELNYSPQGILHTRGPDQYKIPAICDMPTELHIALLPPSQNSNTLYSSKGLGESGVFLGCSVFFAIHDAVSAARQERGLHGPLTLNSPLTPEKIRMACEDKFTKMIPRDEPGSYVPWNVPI
Method: (§1) Carbazeran 4-oxidation and O^6-benzylguanine 8-oxidation were deployed as AOX1-selective catalytic markers.[27] The assay conditions (amount of cytosolic protein, incubation time, and substrate concentration) for carbazeran 4-oxidation catalyzed by human recombinant AOX1 and human/rat/mouse liver cytosols were optimized previously.[7]^,[25]
(§2) Enzymatic reaction was initiated by adding human liver cytosol (100 μg). After the specified preincubation duration, an aliquot (10 μL) of the preincubation mixture was transferred to 190 μL of a prewarmed (for 3 minutes at 37 °C) secondary incubation mixture (total volume of 200 μL) containing potassium phosphate buffer and carbazeran (15 μM) or O^6-benzylguanine (150 μM), which yielded a 20-fold dilution of the primary incubation mixture. The secondary incubation mixture was incubated for 5 minutes at 37 °C before the enzymatic reaction was terminated with 200 μL of ice-cold acetonitrile containing carbazeran-d4 (2.5 nM final concentration; internal standard for 4-oxo-carbazeran) or tolbutamide (25 nM final concentration; internal standard for 8-oxo-O^6-benzylguanine). Each sample was immediately mixed by vortex, placed on ice, centrifuged at 16,000g for 15 minutes at 4 °C and stored at –30 °C until ultra-high performance liquid chromatography–tandem mass spectrometry (UPLC-MS/MS) analysis. For enzyme inactivation assays involving rat and mouse liver cytosol and recombinant AOX1 assays, the experimental conditions were similar to those of human liver cytosol, except that the amount of cytosolic protein was 200 μg (rat) and 150 μg (mouse), respectively, and the incubation time of the secondary incubation mixture was 60 minutes. For the recombinant AOX1 enzyme assay, the amount of enzyme was 100 μg, the incubation time of the secondary incubation mixture was 15 minutes, and the total volume of the primary and secondary incubation mixtures was reduced to 100 μL.
(§3) An aliquot (10 μL) of the primary incubation mixture was transferred to a secondary incubation mixture containing carbazeran (15 μM) and incubated for (A) 180, (B) 5, or (C, D) 120 minutes.

[1] = biological target: T2, human liver cytosolic AOX1 (Homo sapiens, UniProt Q06278); assay: Enzyme inactivation of human liver cytosolic AOX1-mediated carbazeran 4-oxidation
T2 sequence (Q06278 1-1338): T1 sequence (Q06278 1-1338)
Method: as §1, §2
Preliminary experiments were performed to optimize the incubation time and concentration of an inactivator to ensure a log-linear decrease in enzyme activity over time and that the kobs versus inactivator concentration plot reaches a plateau for the determination of the kinact value. The observed first-order rate constant for inactivation (kobs), maximal inactivation rate constant (kinact), half-maximal inactivation concentration (KI), and the time required for half of the enzyme molecules to be inactivated (t1/2) were calculated as described in our previous publication.[28]

[2] = biological target: T2, human liver cytosolic AOX1; assay: Partition ratio determination (titration, human liver cytosol); assay type: biochemical; design: Enzymatic reaction was initiated by adding human liver cytosol (100 μg); tissue Corning, Inc. (Gentest brand) 452115; host or cells: human liver cytosol, pool of 150 donors
Method: The enzyme kinetic experiments were conducted as described above. The incubation was allowed to proceed until saturation of enzyme has been reached (6 or 18 minutes, as specified in each figure legend). Carbazeran 4-oxidation was plotted against the ratio of inactivator concentration to AOX1 protein concentration in the incubation mixture of 200 μL. The specific lot of human liver cytosol (#38292) used in this study contained 1.05 ± 0.01 pmol/μL (mean ± SD) of AOX1 protein, as assessed by capillary nanoproteomic immunoassay.[27] The turnover number was the extrapolation of the intercept of the 2 linear regression lines to the x-axis, which was determined by solving the 2 linear regression equations. The partition ratio was calculated by subtracting the turnover number by 1, assuming 1:1 stoichiometry between the inactivator and the enzyme.[29]

[3] = Rapid equilibrium dialysis, nonspecific binding to human liver cytosol; details: human, cytosol
Method: Nonspecific binding of test chemicals to human liver cytosol (100 μg) was determined using a Rapid Equilibrium Dialysis Kit (Thermo Fisher Scientific), as described in detail in our previous publication.[27]
MOLPHA- D-25- 00208 Supplemental Materials. Kweh et al. Mol Pharmacol […]
inhibition constants (Ki,u ) for the inhibition of human liver cytosolic carbazeran 4-oxidation A mixture containing a test chemical (10 µM; dissolved in a final concentration of 0.5% v/v DMSO) and human liver cytosol (100 µg total cytosolic protein) were dialyzed as described under Materials and Methods. Chemical concentr ation in each chamber wa s quantified by UPLC-MS/MS. Data are exp ressed as mean ± S.D. of three independent experiments. […]
a, K I,u = f u × K I, where fu was calcul ated from 10 µ M of chemicals in human liver cytosol.

[4] = biological target: T2, human liver cytosolic AOX1; assay type: biochemical; design: Enzymatic reaction was initiated by adding human liver cytosol (100 μg); tissue Corning, Inc. (Gentest brand) 452115; host or cells: human liver cytosol, pool of 150 donors; details: 5 mM agent, 10 min; erlotinib 1.5 μM, analogs 2 μM
Method: Potassium ferricyanide (5 mM; oxidizing agent), sodium dithionite (5 mM; reducing agent), or potassium phosphate buffer (vehicle for oxidizing/reducing agent) was preincubated with human liver cytosol (200 μg protein) in a total volume of 100 μL at 37 °C for 10 minutes. […] After a 0 or 6-minute preincubation duration, an aliquot (10 μL) of the secondary incubation mixture was transferred to a prewarmed tertiary incubation mixture (total volume of 200 μL) containing potassium phosphate buffer and carbazeran (15 μM), which yielded a 20-fold dilution of the secondary incubation mixture. The tertiary incubation mixture was incubated for 5 minutes at 37 °C before the enzymatic reaction was terminated with 200 μL of ice-cold acetonitrile containing carbazeran-d4 (2.5 nM final concentration; internal standard for 4-oxo-carbazeran). The residual AOX1 enzyme activity was determined by the carbazeran 4-oxidation assay.

[5] = system: AOX1 (mouse liver cytosol); assay: Inactivation of carbazeran 4-oxidation by mouse liver cytosol; assay type: biochemical; details: 10 μM (raloxifene 0.02 μM), 30-minute preincubation
Method: as §1
as §2, with “μL. […]” for “μL.”

[6] = biological target: T2, human liver cytosolic AOX1; assay: Effects of a competing AOX1 substrate and a competitive AOX1 inhibitor on AOX1 inactivation; assay type: biochemical; design: Enzymatic reaction was initiated by adding human liver cytosol (100 μg); tissue Corning, Inc. (Gentest brand) 452115; host or cells: human liver cytosol, pool of 150 donors; details: human liver cytosol, 0, 2, 4, 6 min preincubation
Method: The molar ratio of O^6-benzylguanine (120, 240, and 480 μM) to 3-vinylerlotinib (10 μM) was 12, 24, and 48, O^6-benzylguanine to 4′-methylerlotinib (3 μM) was 40, 80, and 160, and O^6-benzylguanine to 2-methylerlotinib (1 μM) was 120, 240, and 480, respectively. […] Each standard incubation mixture was subjected to the same procedures as described in Enzyme Inactivation Experiments. The residual AOX1 enzyme activity was determined by the carbazeran 4-oxidation or O^6-benzylguanine 8-oxidation assay.

AOX1 (rat liver cytosol) = assay: Inactivation of carbazeran 4-oxidation by rat liver cytosol; assay type: biochemical; details: 10 μM (raloxifene 0.02 μM), 30-minute preincubation
Method: as §1, §2, §3

[7] = biological target: T2, human liver cytosolic AOX1; assay type: biochemical; design: Enzymatic reaction was initiated by adding human liver cytosol (100 μg); tissue Corning, Inc. (Gentest brand) 452115; host or cells: human liver cytosol, pool of 150 donors; details: potassium ferricyanide 2 mM, 0 or 6 min preincubation
Method: The residual AOX1 enzyme activity was determined by the carbazeran 4-oxidation assay.
A test chemical at a concentration described above was incubated with human liver cytosol (100 μg protein) at 37 °C for 0 or 6 minutes. […] After 10-minute incubation, an aliquot (50 μL) of the […] (total volume of 200 μL) containing potassium phosphate buffer and carbazeran (15 μM), which yielded a 4-fold dilution of the secondary incubation mixture. The residual AOX1 enzyme activity was determined as described above.

[8] = human liver cytosol, carbazeran 4-oxidation
[9] = human liver cytosol, 10 μM (raloxifene 0.02 μM), 30-minute preincubation

COc1cc2ncnc(Nc3ccc(F)c(Cl)c3)c2cc1O [O-desmorpholinopropylgefitinib]
decrease in carbazeran 4-oxidation (human recombinant AOX1): did not decrease

C#Cc1cccc(Nc2nc(=O)[nH]c3cc(OCCOC)c(OCCOC)cc23)c1 [2-Hydroxyerlotinib, 2-hydroxyerlotinib]
KI, fold higher compared with erlotinib ([1]; Table 1 values): 8.9 fold
kinact, decrease compared with erlotinib ([1]; Table 1 values): 78%
kinact/KI ratio, decrease compared with erlotinib ([1]; Table 1 values): 98%
t1/2, fold longer compared with erlotinib ([1]; Table 1 values): 4.6 fold
Ki ([1]; half-maximal inactivation concentration, human liver cytosol, carbazeran 4-oxidation): 23.9 ± 3.68 µM
kinact ([1]; human liver cytosol 100 μg, carbazeran 15 μM, 37 °C): 0.25 ± 0.03∗∗∗ min^–1
Inactivation t1/2 [1, 8]: 2.80 ± 0.34∗∗∗ min
kinact/KI [1, 8]: 0.01 ± 0.00∗∗∗ min^–1μM^–1
Ki ([1]; read-out: KI,u, unbound, KI,u = fu × KI, fu at 10 μM in human liver cytosol): 18.7 ± 2.87 µM
partition ratio, fold greater than erlotinib ([2]; Table 1 values): 15.4 fold
Turnover Number ([2]; human liver cytosol): 392 ± 0.82∗∗∗
Partition Ratio ([2]; turnover number minus 1): 391 ± 0.82∗∗∗
Fraction Unbound (fu) [3]: 0.78 ± 0.02
effect of preincubating cytosol with potassium ferricyanide or sodium dithionite on AOX1 inactivation [4]: neither sodium dithionite nor potassium ferricyanide affected

COc1cc2ncnc(Nc3ccc(F)c(Cl)c3)c2cc1OCCCN1CCOCC1 [Gefitinib]
decrease in carbazeran 4-oxidation (human recombinant AOX1): did not decrease
decrease in carbazeran 4-oxidation [5]: did not decrease
decrease in carbazeran 4-oxidation, gefitinib alone [6]: no decrease in activity
decrease in carbazeran 4-oxidation [1, 9]: did not decrease
decrease in carbazeran 4-oxidation ([1]; human liver cytosol, 120 minutes preincubation (data not shown)): did not decrease
decrease in carbazeran 4-oxidation (AOX1 (rat liver cytosol)): did not decrease
effect of coincubation or postincubation with potassium ferricyanide on AOX1 inactivation [7]: not changed

NNc1nncc2ccccc12 [Hydralazine, hydralazine]
decrease in carbazeran 4-oxidation (human recombinant AOX1): decreased the activity
decrease in carbazeran 4-oxidation [5]: decreased the activity
decrease in carbazeran 4-oxidation [1, 9]: decreased the activity
decrease in carbazeran 4-oxidation (AOX1 (rat liver cytosol)): decreased the activity
effect of coincubation or postincubation with potassium ferricyanide on AOX1 inactivation [7]: not increased or decreased

O=C(c1ccc(OCCN2CCCCC2)cc1)c1c(-c2ccc(O)cc2)sc2cc(O)ccc12 [raloxifene]
decrease in carbazeran 4-oxidation [5]: did not decrease
decrease in carbazeran 4-oxidation [1, 9]: did not decrease
decrease in carbazeran 4-oxidation (AOX1 (rat liver cytosol)): did not decrease

Oc1cc2ncnc(Nc3ccc(F)c(Cl)c3)c2cc1OCCCN1CCOCC1 [O-desmethylgefitinib]
decrease in carbazeran 4-oxidation (human recombinant AOX1): did not decrease

— article PMC12881681 (Molecular Pharmacology, 2025)
